Laboratory results taken from patent US12697313B2, “Methods of treating anemia using formoterol or a pharmaceutically acceptable salt thereof” (Dana-Farber Cancer Institute, Inc., priority 2022, dated 2026).
Entries after “also recorded” stand apart in the source; their conditions may differ.

Assays:
wild-type mice = assay: FF oral gavage in wild-type mice at steady-state; type: in vivo
Source text: N=5 mice per group. All comparisons were done w.r.t. vehicle treated (DMSO) controls.

mitochondrial biogenesis = details: cited from earlier work
naive wild-type mice = assay: FF in naive wild-type mice without PHZ stress (FIG. 62 setup); type: in vivo; details: for % change in body weights: FIG. 63
wild-type C57BL/6J mice = assay: FF daily i.p. in wild-type mice at steady-state (pilot study); type: in vivo
Experimental: The murine β2-adrenoreceptor has 87.08% similarity to the protein composition of the human analog. This encouraged further testing to determine whether formoterol fumarate (FF) treatment in wild-type mice under steady state or hemolytic anemia produces any alleviating effect in vivo. To address this, varying doses of FF 0.1-0.3-0.5-1.0 mg/kg or vehicle (0.3% DMSO in saline) were administered via intraperitoneal (i.p.) injection in 10-12 week old wild-type C57BL/6J mice daily for 3 weeks along with weekly submandibular cheek bleeding to analyze complete blood counts (CBC).
C57BL/6J mice were obtained from Jackson laboratories and were housed for at least 2 weeks at the Dana-Farber Cancer Institute (DFCI) animal resources facility before beginning experiments. All drug treatments have been mentioned in detail in the text.

primary human HSPCs [1] = assay: Mitochondrial functions in primary human HSPCs (mtDNA genes, TMRE, MitoTracker); type: cell-based
Experimental: Given the involvement of β2-AR in erythropoiesis, it was hypothesized that administration of long-acting selective β2-AR agonist FF might promote erythroid differentiation. To address this, primary human HSPCs were treated with varying doses of FF (Selleckchem). […] To ascertain if FF administration plays a role further upstream in the erythroid differentiation pathway, methylcellulose colony-formation assays were performed.
TMRE (T669, Invitrogen) and Mitotracker® (M22426, Life Technologies) and MitoSox® (M36008, Life Technologies) staining were performed as per the manufacturer's instructions.

[2] = system: phenylhydrazine (PHZ)-mediated stress-induced anemic mice; assay: Sublethal PHZ (60 mg/kg)-induced hemolytic anemia, male mice, FF i.p.; type: in vivo
[3] = system: cisplatin-treated CKD mice; assay: FF i.p. in cisplatin-driven chronic kidney disease (CKD) mice; type: in vivo
Experimental: Comparisons are shown in between cisplatin+FF treated mice as compared to cisplatin+ vehicle treated mice.
FF treatment at a low dose of 0.3 mg/kg 3× weekly (i.p.) alleviates RBC parameters, such as % changes in (FIG. 78A) hematocrit% (HCT%) (FIG. 78B) hemoglobin (Hb) and (FIG. 78C) RBCs in mice with cisplatin-driven CKD. * p<0.05, 2-way ANOVA. n=4-5 mice per group. Comparisons are shown in between cisplatin+FF treated mice as compared to cisplatin+ vehicle treated mice.

APC KD HSPCs = assay: Erythropoiesis in APC knockdown HSPCs; type: cell-based, human; details: FIG. 46
Source text: Primary human HSPCs were genome-edited, as previously described (Ghosh, S., Raundhal, M., Myers, S. A., Carr, S. A., Chen, X., Petsko, G. A., and Glimcher, L. H. (2022). Identification of RIOK2 as a master regulator of human blood cell development. Nat Immunol 23, 109-121).

primary human HSPCs [4] = assay: Erythroid differentiation liquid culture of primary human HSPCs, flow cytometry; type: cell-based
Experimental: To address this, primary human HSPCs were treated with varying doses of FF (Selleckchem). […] To ascertain if FF administration plays a role further upstream in the erythroid differentiation pathway, methylcellulose colony-formation assays were performed.
CD34+ primary human hematopoietic stem and progenitor cells (HSPCs) were obtained from Fred-Hutchinson Cancer Research center, Seattle, USA and cultured, as previously described. Formoterol fumarate was purchased from Selleckchem (#S2020) and Sigma (#F9552), dissolved (in DMSO) and stored as per manufacturer's instructions, and used at the final working concentrations as indicated.

[5] = 0.1/0.3 mg/kg, PHZ 60 mg/kg, FIG. 26

COc1ccc(C[C@@H](C)NC[C@H](O)c2ccc(O)c(NC=O)c2)cc1.O=C(O)/C=C/C(=O)O [FF, (E)-but-2-enedioic acid;N-[2-hydroxy-5-[(1R)-1-hydroxy-2-[[(2R)-1-(4-methoxyphenyl)propan-2-yl]amino]ethyl]phenyl]formamide]
RBC parameters (HCT %, RBC numbers, Hb) in peripheral blood (wild-type mice; 14 days of daily o.g., FIG. 48): increases RBC parameters
WBCs, monocytes and platelets in peripheral blood (wild-type mice; 14 days of daily o.g., FIG. 49): does not affect WBC parameters
mitochondrial membrane potential (TMRE staining) in BMPs (wild-type mice; 14 days of daily o.g., FIG. 50): increases viability and mitochondrial membrane potential
viability of bone marrow progenitors (BMPs) (wild-type mice; 14 days of daily o.g., FIG. 50): increases viability and mitochondrial membrane potential
MEP and MkP (wild-type mice; 14 days of daily o.g., FIG. 51): increases megakaryocyte erythroid progenitors (MEP) and megakaryocytic progenitors (MkP)
granulocyte monocyte progenitors (GMP) (wild-type mice; 14 days of daily o.g., FIG. 51): does not affect granulocyte monocyte progenitors (GMP)
% change in body weights (wild-type mice; o.g., steady state, FIG. 53): mildly increases body weights
expression of mtDNA encoded genes (mitochondrial biogenesis; Arif et al. 2019): upregulates the expression of mtDNA encoded genes
mitochondrial oxygen consumption rates (OCR) (mitochondrial biogenesis; in vitro and ex vivo (Arif et al. 2019)): promotes mitochondrial oxygen consumption rates (OCR)
mitochondrial biogenesis (mitochondrial biogenesis; several in vitro and in vivo models (literature)): reported to augment mitochondrial biogenesis
% change in body weights (naive wild-type mice; 0.1/0.3/0.5 mg/kg): increases body weights
viability of BM progenitors (naive wild-type mice; 0.1/0.3/0.5 mg/kg, FIG. 67A): substantially increases
LS-K cells in the BM (naive wild-type mice; 0.1/0.3/0.5 mg/kg, FIG. 67B): substantially increases
MEP and MkP in BM (naive wild-type mice; 0.1/0.3/0.5 mg/kg, FIG. 68A-68B): significantly elevates megakaryocyte erythroid progenitors (MEP) and megakaryocytic progenitors (MkP)
expression of erythroid genes EPOR, ASXL1, NFE2 in sorted erythroid progenitors (naive wild-type mice; 0.1/0.3/0.5 mg/kg, FIG. 70A-70C): substantially increases the expression of erythroid genes
expression of ADRB2 in sorted erythroid progenitors (naive wild-type mice; 0.1/0.3/0.5 mg/kg, FIG. 70D): does not influence the expression of β2-AR-encoding gene ADRB2
% change in body weights (naive wild-type mice; 0.1 and 0.3 mg/kg groups): did not show statistical significance
HCT% (naive wild-type mice; 0.1 and 0.5 mg/kg groups, FIG. 64C): did not show statistical significance
RBC parameters (RBC numbers, Hb, HCT %) in peripheral blood (naive wild-type mice; FIG. 64): enhances and sustains RBC parameters
WBC numbers and platelet counts (naive wild-type mice; FIG. 65A, 65C): does not influence
monocyte counts in peripheral blood (naive wild-type mice; FIG. 65B): modestly impacts monocyte counts
mitochondrial biogenesis in BMPs (MitoTracker staining) (naive wild-type mice; FIG. 66A): enhances mitochondrial biogenesis
mitochondrial membrane potential in BMPs (TMRE staining) (naive wild-type mice; FIG. 66B): enhances mitochondrial membrane potential
mitochondrial superoxide production in BMPs (MitoSox staining) (naive wild-type mice; FIG. 66C): significantly reduces mitochondrial superoxide production
body weights (wild-type C57BL/6J mice; 0.3-0.5 and 1.0 mg/kg daily i.p., FIG. 14A): mildly increased body weights of mice, but the values did not reach significance
RBC parameters (RBC numbers, HCT %, Hb) in peripheral blood (wild-type C57BL/6J mice; 14 days of daily i.p., FIG. 14C-14E): slightly elevated; also recorded: mildly increases RBC parameters
WBC and monocyte counts in peripheral blood (wild-type C57BL/6J mice; 14 days of daily i.p., FIG. 14F-14G): remained marginally affected; also recorded: does not affect white blood cell (WBC) or monocyte counts
mitochondrial biogenesis in PBMCs (MitoTracker staining) (wild-type C57BL/6J mice; all doses, day 14 of daily i.p., FIG. 14B): significantly enhanced mitochondrial biogenesis; also recorded: enhances mitochondrial biogenesis
tolerability (body weights, mobility, activeness, breathing patterns) (wild-type C57BL/6J mice; daily i.p. 0.1-0.3-0.5-1.0 mg/kg): well-tolerated
mitochondrial membrane potential (TMRE staining) (primary human HSPCs [1]; FIG. 5B): elevated mitochondrial mass and membrane potential; also recorded: enhances mitochondrial membrane potential
mitochondrial mass (MitoTracker staining) (primary human HSPCs [1]; FIG. 5C): elevated mitochondrial mass and membrane potential; also recorded: increases mitochondrial mass
expression of mitochondrial DNA encoded genes MT-ND1, MT-CytB, MT-CO1, MT-ATP6 (primary human HSPCs [1]; vs DMSO, FIG. 5A): enhanced expression of mtDNA encoded genes required for OXPHOS; also recorded: enhances expression of mitochondrial DNA encoded genes
body weights (absolute and % change) ([2]; 0.1/0.3 mg/kg i.p., PHZ 60 mg/kg, male, FIG. 22A): marked revival was similarly observed in body weights; also recorded: increases absolute body weights and % change in body weights
viability of BM cells ([2]; 0.1/0.3 mg/kg, PHZ 60 mg/kg, FIG. 23A): marked increase in viability; also recorded: substantially increases viability
common myeloid progenitors (CMP) and granulocyte monocyte progenitors (GMP) in BM [2, 5]: not affected
megakaryocyte erythroid progenitors (MEP) in BM [2, 5]: specifically boosted megakaryocyte erythroid progenitors (MEP); also recorded: substantially increases MEP
megakaryocytic progenitors (MkP) in BM ([2]; 0.1/0.3 mg/kg, PHZ 60 mg/kg, FIG. 27): no stark differences were observed in megakaryocytic progenitors; also recorded: does not affect megakaryocytic progenitors
mitochondrial mass in PBMCs (MitoTracker staining) ([2]; Day 4 after PHZ treatment, FIG. 21): increases MitoTracker® Staining
mitochondrial biogenesis in BM cells (MitoTracker staining) ([2]; FIG. 23B): elevated mitochondrial biogenesis; also recorded: enhances mitochondrial biogenesis
mitochondrial superoxide production in BM cells (MitoSox staining) ([2]; FIG. 23C): reduced mitochondrial superoxide production; also recorded: significantly reduces mitochondrial superoxide production
LS-K cells in the bone marrow ([2]; FIG. 25): enhances LS-K cells
Pre-CFU-E cells in the BM ([2]; FIG. 28): selectively enhances Pre-CFU-E cells
pro-erythroblasts in the BM ([2]; FIG. 29): selectively enhances pro-erythroblasts
granulocytic myeloid progenitors (GMP) in bone marrow ([2]; FIG. 41, study not stated in legend): does not affect granulocytic myeloid progenitors (GMP)
RBC parameters (Hb, HCT %, RBC numbers) in peripheral blood ([2]; PHZ 60 mg/kg, FIG. 22B): consistently improved RBC parameters; also recorded: significantly enhances and sustains RBC parameters
platelet counts ([2]; PHZ 60 mg/kg, FIG. 22C): no long term impact was observed in the WBC parameters or platelets; also recorded: not statistically significant
WBC and monocyte counts ([2]; day 4 and over 14 days, PHZ 60 mg/kg, FIG. 22C): no long term impact was observed in the WBC parameters or platelets; also recorded: increases WBC and monocyte counts in the peripheral blood after 4 days of daily i.p. injections but does not sustain the impact over 14 days
% changes in RBC parameters (HCT%, Hb, RBCs) ([3]; 0.3 mg/kg 3× weekly i.p., FIG. 78): rescues anemia
absolute values of RBC parameters (Hb, HCT %, RBCs) ([3]; 0.3 mg/kg 3× weekly i.p., FIG. 79): elevates RBC parameters
terminal erythroid progenitors in the BM ([3]; 0.3 mg/kg 3× weekly i.p., FIG. 81A): elevates erythroid progenitors
serum BUN and creatinine levels ([3]; FIG. 77): does not affect serum BUN and creatinine levels
WBCs and platelets ([3]; FIG. 80): does not affect WBC parameters
body weights ([3]; i.p., vs cisplatin+vehicle, FIG. 76): significantly rescues (elevates) body weights
erythropoiesis (APC KD HSPCs): moderately rescues erythropoiesis
erythroid differentiation (CD235a) (primary human HSPCs [4]; 1/5 μM, n=5 healthy donors, FIG. 2): induces erythroid differentiation (CD235a) dose-dependently
megakaryocytic differentiation (CD41/61) (primary human HSPCs [4]; 1/5 μM, n=5 healthy donors, FIG. 12): does not influence megakaryocytic differentiation (CD41/61)
erythroid differentiation (primary human HSPCs [4]; FF from Selleckchem and Sigma, n=4 healthy donors, FIG. 3A-3B): similarly enhanced erythroid differentiation; also recorded: enhances erythroid differentiation
erythroid differentiation (primary human HSPCs [4]; control (RIOK2-proficient) HSPCs, FIG. 6B): consistently enhanced erythroid differentiation in the control HSPCs
erythroid differentiation (CD235a) (primary human HSPCs [4]; varying doses FF (Selleckchem) vs 0 μM DMSO, n=3 healthy donors, FIG. 1A): elevated erythroid differentiation in primary human HSPCs in a dose-dependent manner; also recorded: enhances erythroid differentiation (CD235a) dose-dependently
viability (primary human HSPCs [4]; varying doses FF vs DMSO, FIG. 1B): without affecting viability, megakaryopoiesis or myelopoiesis; also recorded: does not affect viability
megakaryocytic (CD41-61) differentiation (primary human HSPCs [4]; varying doses FF vs DMSO, FIG. 1C): without affecting viability, megakaryopoiesis or myelopoiesis; also recorded: does not affect
myeloid (CD11b) differentiation (primary human HSPCs [4]; varying doses FF vs DMSO, FIG. 1D): without affecting viability, megakaryopoiesis or myelopoiesis; also recorded: does not affect
